# Experimental data as given in US12479843B2, “Spiro ring-containing quinazoline compounds” (WIGEN BIOMEDICINE TECHNOLOGY (SHANGHAI) CO., LTD., priority 2019, dated 2025).
# Legend:
# [1] = tested on: pERK level in H358 cells; test: pERK and ERK protein content assay in H358 cells (ELISA); type: cell-based; conditions: Homo sapiens, NCI-H358, compound 1 μM, 24 h, pERK/ERK ratio compared with DMSO group, read-out: Inhibition rate (%) of pERK level
# Method: H358 cells were seeded in a 24-well plate. After one day of growth, a test compound (at a concentration of 1 μM) was added. After 24 h of action of the compound, the cells were lysed, and the cell lysate was transferred to a 96-well ELISA plate. The levels of pERK and ERK in the lysate were measured using an ELISA kit (abcam 176660). The ratio of pERK to ERK was calculated and compared with that of the DMSO group, and the percentage of inhibition of pERK activity by the compound was calculated.
# [2] = tested on: H358 cells; test: Antiproliferative activity against H358 cells (Cell Titer Glow, ultra-low attachment plate); type: cell-based; conditions: Homo sapiens, NCI-H358, 72 h, 96-well ultra-low attachment plate, three days after addition of compound, Cell Titer Glow
# Method: 2500 H358 cells were seeded in a 96-well ultra-low attachment plate (corning, 7007). After one day of growth, a serially diluted compound (a maximum concentration of 5 μM, 5-fold dilution, a total of five doses) was added. Three days after the addition of the compound, Cell Titer Glow (Promega, G9681) was added to evaluate pellet growth, and the IC50 value was calculated.
smiles,measurement,setting,value
C=CC(=O)N1CC2(CCN(c3nc(N4CC5(CCN(CCOC)C5)C4)nc4c(OCC(F)(F)F)c(-c5c(C)ccc6[nH]ncc56)c(C5CC5)cc34)CC2)C1 [Compound 75],inhibition at 1 µM,[1],> 90%
same,IC50,[2],< 300 nM
C=C(F)C(=O)N1CC2(CCN(c3nc(OC4CC5(C4)CN(C4COC4)C5)nc4c(OCC(F)(F)F)c(-c5c(C)ccc6[nH]ncc56)c(C5CC5)cc34)CC2)C1 [Compound 128],inhibition at 1 µM,[1],> 90%
same,IC50,[2],< 300 nM
C=CC(=O)N1CC2(CCN(c3nc(N4CC5(CCS(=O)(=O)CC5)C4)nc4c(OCC(F)(F)F)c(-c5c(C)ccc6[nH]ncc56)c(C5CC5)cc34)CC2)C1 [Compound 307],inhibition at 1 µM,[1],> 90%
same,IC50,[2],< 300 nM
C=C(F)C(=O)N1CC2(CCN(c3nc(N4CC5(COC5)C4)nc4c(OCC(F)(F)F)c(-c5c(C)ccc6[nH]ncc56)c(C5CC5)cc34)CC2)C1 [Compound 68],inhibition at 1 µM,[1],50 to 90%
same,IC50,[2],300 to 1000 nM
C=C(F)C(=O)N1CC2(CCN(c3nc(N4CC(N5CCOCC5)C4)nc4c(OCC(F)(F)F)c(-c5c(C)ccc6[nH]ncc56)c(C5CC5)cc34)CC2)C1 [Compound 147],inhibition at 1 µM,[1],> 90%
same,IC50,[2],< 300 nM
C=C(F)C(=O)N1CC2(CCN(c3nc(N4CCC5(CCN(CCOC)C5)CC4)nc4c(OCC(F)(F)F)c(-c5c(C)ccc6[nH]ncc56)c(C5CC5)cc34)CC2)C1 [Compound 106],inhibition at 1 µM,[1],50 to 90%
same,IC50,[2],300 to 1000 nM
C=CC(=O)N1CC2(CCN(c3nc(N4CC(N5C6CCC5CC6)C4)nc4c(OCC(F)(F)F)c(-c5c(C)ccc6[nH]ncc56)c(C=C)cc34)CC2)C1 [Compound 341],inhibition at 1 µM,[1],> 90%
same,IC50,[2],< 300 nM
C=CC(=O)N1CC2(CCN(c3nc(N4CC[C@@H](N5CC(F)C5)C4)nc4c(OCC(F)(F)F)c(-c5c(C)ccc6[nH]ncc56)c(C5CC5)cc34)CC2)C1 [Compound 202],inhibition at 1 µM,[1],> 90%
same,IC50,[2],< 300 nM
C=CC(=O)N1CC2(CCN(c3nc(N(C)CCN4CCCC4)nc4c(OCC(F)(F)F)c(-c5c(C)ccc6[nH]ncc56)c(C5CC5)cc34)CC2)C1 [Compound 232],inhibition at 1 µM,[1],> 90%
same,IC50,[2],< 300 nM
C=CC(=O)N1CC2(CCN(c3nc(N4CCC5(CN(C)C5)C4)nc4c(OCC(F)(F)F)c(-c5c(C)ccc6[nH]ncc56)c(C5CC5)cc34)CC2)C1 [Compound 97],inhibition at 1 µM,[1],50 to 90%
same,IC50,[2],300 to 1000 nM
C=CC(=O)N1CC2(CCN(c3nc(N4CC(N5CC[C@H](C)C5)C4)nc4c(OCC(F)(F)F)c(-c5c(C)ccc6[nH]ncc56)c(C5CC5)cc34)CC2)C1 [Compound 247],inhibition at 1 µM,[1],> 90%
same,IC50,[2],< 300 nM
C=CC(=O)N1CC2(CCN(c3nc(N4CC5(CC(N6CCC[C@H]6C)C5)C4)nc4c(OCC(F)(F)F)c(-c5c(C)ccc6[nH]ncc56)c(C5CC5)cc34)CC2)C1 [Compound 291],inhibition at 1 µM,[1],> 90%
same,IC50,[2],< 300 nM
C=CC(=O)N1CC2(CCN(c3nc(N4CC(N5CC(CC#N)C5)C4)nc4c(OCC(F)(F)F)c(-c5c(C)ccc6[nH]ncc56)c(C5CC5)cc34)CC2)C1 [Compound 242],inhibition at 1 µM,[1],> 90%
same,IC50,[2],< 300 nM
C=CC(=O)N1CC2(CCN(c3nc(N4CC5(CC(N6CCC[C@@H]6C)C5)C4)nc4c(OCC(F)(F)F)c(-c5c(C)ccc6[nH]ncc56)c(C5CC5)cc34)CC2)C1 [Compound 290],inhibition at 1 µM,[1],> 90%
same,IC50,[2],< 300 nM
C=C(F)C(=O)N1CC2(CCN(c3nc(N4CC(N(C)CCOC)C4)nc4c(OCC(F)(F)F)c(-c5c(C)ccc6[nH]ncc56)c(C5CC5)cc34)CC2)C1 [Compound 141],inhibition at 1 µM,[1],> 90%
same,IC50,[2],< 300 nM
C=CC(=O)N1CC2(CCN(c3nc(N4CC5(CC(N6CCC6)C5)C4)nc4c(OCC(F)(F)F)c(-c5c(C)ccc6[nH]ncc56)c(C5CC5)cc34)CC2)C1 [Compound 287],inhibition at 1 µM,[1],> 90%
same,IC50,[2],< 300 nM
C=CC(=O)N1CC2(CCN(c3nc(N4CC(N5CC[C@H](C#N)C5)C4)nc4c(OCC(F)(F)F)c(-c5c(C)ccc6[nH]ncc56)c(C5CC5)cc34)CC2)C1 [Compound 257],inhibition at 1 µM,[1],> 90%
same,IC50,[2],300 to 1000 nM
C=C(C(=O)N1CC2(CCN(c3nc(OC4CCN(CCOC)CC4)nc4c(OCC(F)(F)F)c(-c5c(C)ccc6[nH]ncc56)c(C5CC5)cc34)CC2)C1)c1cnccn1 [Compound 20],inhibition at 1 µM,[1],> 90%
same,IC50,[2],< 300 nM
C=CC(=O)N1CC2(CCN(c3nc(N4CC(N5CCC5)C4)nc4c(OCC(F)(F)F)c(-c5c(C)ccc6[nH]ncc56)c(C=C)cc34)CC2)C1 [Compound 336],inhibition at 1 µM,[1],> 90%
same,IC50,[2],< 300 nM
C=C(F)C(=O)N1CC2(CCN(c3nc(OC4CCN(CCCOC)CC4)nc4c(OCC(F)(F)F)c(-c5c(C)ccc6[nH]ncc56)c(C5CC5)cc34)CC2)C1 [Compound 63],inhibition at 1 µM,[1],> 90%
same,IC50,[2],< 300 nM
C=CC(=O)N1CC2(CCN(c3nc(OC4CCN(CCOC)CC4)nc4c(OCC(F)(F)F)c(-c5c(C)ccc6[nH]ncc56)c(CC)cc34)CC2)C1 [Compound 14],inhibition at 1 µM,[1],> 90%
same,IC50,[2],300 to 1000 nM
C=CC(=O)N1CC2(CCN(c3nc(N4CC5(CCCO5)C4)nc4c(OCC(F)(F)F)c(-c5c(C)ccc6[nH]ncc56)c(C5CC5)cc34)CC2)C1 [Compound 279],inhibition at 1 µM,[1],> 90%
same,IC50,[2],< 300 nM
C=CC(=O)N1CC2(CCN(c3nc(N4CC(N5CC[C@@H](C)C5)C4)nc4c(OCC)c(-c5c(C)ccc6[nH]ncc56)c(C5CC5)cc34)CC2)C1 [Compound 331],inhibition at 1 µM,[1],> 90%
same,IC50,[2],< 300 nM
C=CC(=O)N1CC2(CCN(c3nc(N4CC(N5CC(C)(O)C5)C4)nc4c(OCC(F)(F)F)c(-c5c(C)ccc6[nH]ncc56)c(C5CC5)cc34)CC2)C1 [Compound 240],inhibition at 1 µM,[1],> 90%
same,IC50,[2],< 300 nM
C=CC(=O)N1CC2(CCN(c3nc(N4CC[C@H](N5CC[C@@H](OC)C5)C4)nc4c(OCC(F)(F)F)c(-c5c(C)ccc6[nH]ncc56)c(C5CC5)cc34)CC2)C1 [Compound 197],inhibition at 1 µM,[1],> 90%
same,IC50,[2],< 300 nM
C=CC(=O)N1CC2(CCN(c3nc(OC4CCN(CCOC)CC4)nc4c(OCC(F)(F)F)c(-c5ccc(F)cc5F)c(C5CC5)cc34)CC2)C1 [Compound 56],inhibition at 1 µM,[1],> 90%
same,IC50,[2],< 300 nM
C=CC(=O)N1CC2(CCN(c3nc(N4CC[C@H](N(CC)CC)C4)nc4c(OCC(F)(F)F)c(-c5c(C)ccc6[nH]ncc56)c(C5CC5)cc34)CC2)C1 [Compound 189],inhibition at 1 µM,[1],> 90%
same,IC50,[2],< 300 nM
C=C(F)C(=O)N1CC2(CCN(c3nc(OC4CCN(CCOC)CC4)nc4c(OCC(F)(F)F)c(-c5c(O)cccc5F)c(C5CC5)cc34)CC2)C1 [Compound 46],inhibition at 1 µM,[1],> 90%
same,IC50,[2],< 300 nM
C=CC(=O)N1CC2(CCN(c3nc(N4CCC5(CCN(CCOC)C5)C4)nc4c(OCC(F)(F)F)c(-c5c(C)ccc6[nH]ncc56)c(C5CC5)cc34)CC2)C1 (stereo not shown) [Compound 160],inhibition at 1 µM,[1],> 90%
same,IC50,[2],< 300 nM
C=CC(=O)N1CC2(CCN(c3nc(N4CC[C@H](N(C)CC)C4)nc4c(OCC(F)(F)F)c(-c5c(C)ccc6[nH]ncc56)c(C5CC5)cc34)CC2)C1 [Compound 187],inhibition at 1 µM,[1],> 90%
same,IC50,[2],< 300 nM
C=CC(=O)N1CC2(CCN(c3nc(N4CC[C@@H](N5CC[C@@H](F)C5)C4)nc4c(OCC(F)(F)F)c(-c5c(C)ccc6[nH]ncc56)c(C5CC5)cc34)CC2)C1 [Compound 194],inhibition at 1 µM,[1],> 90%
same,IC50,[2],< 300 nM
C=C(C(=O)N1CC2(CCN(c3nc(OC4CCN(CCOC)CC4)nc4c(OCC(F)(F)F)c(-c5c(C)ccc6[nH]ncc56)c(C5CC5)cc34)CC2)C1)C(F)(F)F [Compound 19],inhibition at 1 µM,[1],50 to 90%
same,IC50,[2],300 to 1000 nM
C=CC(=O)N1CC2(CCN(c3nc(N4CC(N5CCC5)C4)nc4c(OCC(F)(F)F)c(-c5c(C)c(C)cc6[nH]ncc56)c(C5CC5)cc34)CC2)C1 [Compound 217],inhibition at 1 µM,[1],> 90%
same,IC50,[2],< 300 nM
C=CC(=O)N1CC2(CCN(c3nc(N4CC[C@@H](N5CCCC5)C4)nc4c(OCC(F)(F)F)c(-c5c(C)ccc6[nH]ncc56)c(C5CC5)cc34)CC2)C1 [Compound 184],inhibition at 1 µM,[1],> 90%
same,IC50,[2],< 300 nM
C=C(F)C(=O)N1CC2(CCN(c3nc(N4CC(N5CCC5)C4)nc4c(OCC(F)(F)F)c(-c5c(C)ccc6[nH]ncc56)c(C5CC5)cc34)CC2)C1 [Compound 143],inhibition at 1 µM,[1],> 90%
same,IC50,[2],< 300 nM
C=C(F)C(=O)N1CC2(CCN(c3nc(N4CCC5(CN(C)C5)C4)nc4c(OCC(F)(F)F)c(-c5c(C)ccc6[nH]ncc56)c(C5CC5)cc34)CC2)C1 [Compound 98],inhibition at 1 µM,[1],50 to 90%
same,IC50,[2],300 to 1000 nM
C=CC(=O)N1CC2(CCN(c3nc(N4CC(N5CCC[C@@H]5C#N)C4)nc4c(OCC(F)(F)F)c(-c5c(C)ccc6[nH]ncc56)c(C5CC5)cc34)CC2)C1 [Compound 249],inhibition at 1 µM,[1],50 to 90%
same,IC50,[2],300 to 1000 nM
C=CC(=O)N1CC2(CCN(c3nc(N4CC(N5CCC[C@H]5C#N)C4)nc4c(OCC(F)(F)F)c(-c5c(C)ccc6[nH]ncc56)c(C5CC5)cc34)CC2)C1 [Compound 250],inhibition at 1 µM,[1],50 to 90%
same,IC50,[2],300 to 1000 nM
C=CC(=O)N1CC2(CCN(c3nc(N4CC5(CC(O)C5)C4)nc4c(OCC(F)(F)F)c(-c5c(C)ccc6[nH]ncc56)c(C5CC5)cc34)CC2)C1 [Compound 282],inhibition at 1 µM,[1],> 90%
same,IC50,[2],< 300 nM
C=C(F)C(=O)N1CC2(CCN(c3nc(OC4CCN(CCOC)CC4)nc4c(OCC(F)(F)F)c(-c5c(F)ccc6cn[nH]c56)c(C5CC5)cc34)CC2)C1 [Compound 34],inhibition at 1 µM,[1],> 90%
same,IC50,[2],< 300 nM
C=CC(=O)N1CC2(CCN(c3nc(N4CC(N5CC(F)C5)C4)nc4c(OCC(F)(F)F)c(-c5c(C)ccc6[nH]ncc56)c(C5CC5)cc34)CC2)C1 [Compound 168],inhibition at 1 µM,[1],> 90%
same,IC50,[2],< 300 nM
